According to DBAASP:
Converted amounts (≈) assume the structure as drawn.

Key:
Assay in all cases: ≥ marks a high value that may be exact or a test limit, other limits are often not marked, values filed in µg/mL are converted to µM
[1] = test system: Listeria monocytogenes ATCC 7644
[2] = test system: Escherichia coli ATCC 25922
[3] = test system: Bacillus subtilis ATCC 6633
[4] = test system: Shigella flexneri
[5] = test system: Streptococcus agalactiae
[6] = test system: Salmonella enterica subsp. enterica serovar Typhi ATCC 6399
[7] = test system: Staphylococcus aureus ATCC 25923
[8] = test system: Bacillus subtilis 168
[9] = test system: Escherichia coli B
[10] = test system: Candida albicans F7-39/IDE99
[11] = test system: Staphylococcus aureus 1
[12] = test system: Staphylococcus aureus ATCC 43300
[13] = test system: Staphylococcus aureus
[14] = test system: Staphylococcus epidermidis
[15] = test system: Pseudomonas aeruginosa
[16] = test system: Micrococcus luteus CCM 144
[17] = test system: Pseudomonas aeruginosa ATCC 27853
[18] = test system: Bacillus subtilis IFO 3513
[19] = test system: Staphylococcus aureus IFO 12732
[20] = test system: Escherichia coli IFO 12734
[21] = test system: Staphylococcus epidermidis ATCC 35984
[22] = test system: Bacillus subtilis ATCC 23857
[23] = test system: Staphylococcus aureus USA 300
[24] = test system: Bacillus subtilis VKM B-501
[25] = test system: Pseudomonas aeruginosa PAO1
[26] = test system: Acinetobacter sp. DSM 586
[27] = test system: Escherichia coli DSM 1116
[28] = test system: Escherichia coli DH5alpha
[29] = test system: Bacillus subtilis subsp. spizizenii DSM 347
[30] = test system: Arthrobacter globiformis VKM Ac-1112
[31] = test system: Saccharomyces cerevisiae Y190
[32] = test system: Escherichia coli MH1
[33] = test system: Staphylococcus xylosus DSM 20267
[34] = test system: Escherichia coli K-12

SMILES: CC[C@H](C)[C@H](NC(=O)[C@H](CC(C)C)NC(=O)[C@H](CCCCN)NC(=O)[C@H](CC(C)C)NC(=O)[C@H](C)NC(=O)CNC(=O)[C@H](CCCCN)NC(=O)[C@H](C)NC(=O)[C@H](CC(C)C)NC(=O)[C@H](C)NC(=O)CNC(=O)[C@H](Cc1c[nH]c2ccccc12)NC(=O)[C@@H](N)Cc1ccccc1)C(=O)NCC(=O)N[C@H](C(=O)N[C@@H](CO)C(=O)N[C@@H](CC(C)C)C(=O)N[C@@H](Cc1ccccc1)C(=O)N[C@@H](CO)C(=O)N[C@@H](CO)C(=O)N[C@@H](Cc1ccccc1)C(=O)N[C@@H](CO)C(=O)N[C@@H](CCCCN)C(=O)N[C@@H](CCCCN)C(=O)N[C@@H](CC(=O)O)C(=O)O)C(C)C [FWGALAKGALKLIGVSLFSSFSKKD]
- MIC [1]: ≥ 300 µM
- MIC [2]: 300 µM (≈ 801 µg/mL)
- MIC [3]: ≥ 300 µM
- MIC [4]: ≥ 300 µM
- MIC [5]: ≥ 300 µM
- MIC [6]: ≥ 300 µM
- MIC [7]: 300 µM (≈ 801 µg/mL)

SMILES: CC[C@H](C)[C@H](NC(=O)[C@H](CC(C)C)NC(=O)[C@H](CCCCN)NC(=O)[C@H](CC(C)C)NC(=O)[C@H](C)NC(=O)CNC(=O)[C@H](CCCCN)NC(=O)[C@H](C)NC(=O)[C@H](CC(C)C)NC(=O)[C@H](C)NC(=O)CNC(=O)[C@H](Cc1c[nH]c2ccccc12)NC(=O)[C@@H](N)Cc1ccccc1)C(=O)N[C@H](C(=O)NCC(=O)N[C@@H](CO)C(=O)N[C@@H](CC(C)C)C(=O)N[C@@H](Cc1ccccc1)C(=O)N[C@@H](CO)C(=O)N[C@@H](CO)C(=O)N[C@@H](Cc1ccccc1)C(=O)N[C@@H](CO)C(=O)N[C@@H](CCCCN)C(=O)N[C@@H](CCCCN)C(=O)N[C@@H](CC(=O)O)C(=O)O)C(C)C [FWGALAKGALKLIVGSLFSSFSKKD]
- MIC [1]: ≥ 300 µM
- MIC [2]: 300 µM (≈ 801 µg/mL)
- MIC [3]: ≥ 300 µM
- MIC [4]: ≥ 300 µM
- MIC [5]: ≥ 300 µM
- MIC [6]: ≥ 300 µM
- MIC [7]: 300 µM (≈ 801 µg/mL)

SMILES: CC[C@H](C)[C@H](NC(=O)CN)C(=O)N[C@@H](CCSC)C(=O)N[C@@H](CO)C(=O)N[C@@H](CO)C(=O)N[C@@H](CC(C)C)C(=O)N[C@@H](CCSC)C(=O)N[C@@H](CCCCN)C(=O)N[C@@H](CCCCN)C(=O)N[C@@H](CC(C)C)C(=O)N[C@@H](C)C(=O)N[C@@H](CCCCN)C(=O)N[C@@H](Cc1cnc[nH]1)C(=O)N[C@H](C(=O)N[C@@H](C)C(=O)N[C@@H](CCCCN)C(N)=O)[C@@H](C)CC [GIMSSLMKKLAKHIAK]
- MIC [8]: 7 µM (≈ 12.3 µg/mL)
- MIC [9]: 15 µM (≈ 26.3 µg/mL)
- MIC [10]: 14 µM (≈ 24.6 µg/mL)
- MIC [11]: ≥ 35 µM
- MIC [12]: 63 µM (≈ 111 µg/mL)
- MIC [13]: 63 µM (≈ 111 µg/mL)
- MIC [14]: 6.2 µM (≈ 10.9 µg/mL)
- MIC [15]: 20 µM (≈ 35.1 µg/mL)
- MIC [16]: 3 µM (≈ 5.27 µg/mL)
- MIC [17]: 7.9 µM (≈ 13.9 µg/mL)

SMILES: CC[C@H](C)[C@H](N)C(=O)N[C@@H](CC(C)C)C(=O)N1CCC[C@H]1C(=O)N[C@@H](CCCCN)C(=O)N[C@@H](CCCCN)C(=O)N[C@@H](Cc1c[nH]c2ccccc12)C(=O)N1CCC[C@H]1C(=O)N[C@@H](CCCCN)C(=O)N[C@@H](CC(C)C)C(=O)N1CCC[C@H]1C(=O)N[C@@H](Cc1c[nH]c2ccccc12)C(=O)N[C@@H](CCCN=C(N)N)C(=O)N[C@@H](CCCN=C(N)N)C(N)=O [ILPKKWPKLPWRR]
- MIC [18]: 1.82 µM (≈ 3.13 µg/mL)
- MIC [19]: 3.64 µM (≈ 6.25 µg/mL)
- MIC [20]: 29.1 µM (≈ 50 µg/mL)

SMILES: CC[C@H](C)[C@H](N)C(=O)N[C@@H](CC(C)C)C(=O)N1CCC[C@H]1C(=O)N[C@@H](Cc1c[nH]c2ccccc12)C(=O)N[C@@H](CCCCN)C(=O)N[C@@H](CC(C)C)C(=O)N1CCC[C@H]1C(=O)N[C@@H](Cc1c[nH]c2ccccc12)C(=O)N[C@@H](Cc1c[nH]c2ccccc12)C(=O)N1CCC[C@H]1C(=O)N[C@@H](Cc1c[nH]c2ccccc12)C(=O)N[C@@H](CCCN=C(N)N)C(=O)N[C@@H](CCCN=C(N)N)C(N)=O [ILPWKLPWWPWRR]
- MIC [18]: 1.71 µM (≈ 3.13 µg/mL)
- MIC [19]: 0.851 µM (≈ 1.56 µg/mL)
- MIC [20]: 13.6 µM (≈ 25 µg/mL)

SMILES: CC[C@H](C)[C@H](NC(=O)[C@H](C)NC(=O)[C@@H](N)CCSC)C(=O)N[C@H](C(=O)NCC(=O)N[C@H](C(=O)N[C@H](C(=O)N[C@H](C(=O)N[C@@H](CCCCN)C(=O)N[C@H](C(=O)N[C@H](C(=O)N[C@@H](CCCCN)C(=O)N[C@@H](C)C(=O)N[C@H](C(=O)N[C@H](C(=O)N[C@@H](CC(=O)O)C(=O)N[C@H](C(=O)N[C@@H](Cc1ccccc1)C(=O)N[C@@H](C)C(=O)N[C@@H](CCCCN)C(=O)O)[C@@H](C)CC)[C@@H](C)CC)[C@@H](C)CC)[C@@H](C)CC)[C@@H](C)CC)[C@@H](C)CC)[C@@H](C)CC)[C@@H](C)O)C(C)C [MAIVGTIIKIIKAIIDIFAK]
- MIC [21]: ≥ 64 µM
- MIC [2]: > 128 µM
- MIC [22]: ≥ 128 µM
- MIC [23]: ≥ 64 µM

SMILES: CSCC[C@H](NC(=O)CNC(=O)[C@H](CO)NC(=O)[C@H](Cc1c[nH]c2ccccc12)NC(=O)[C@H](CCSC)NC(=O)[C@@H](N)CO)C(=O)N[C@@H](Cc1c[nH]c2ccccc12)C(=O)N[C@@H](CCCN=C(N)N)C(=O)N[C@@H](CCCN=C(N)N)C(=O)N[C@@H](CCCCN)C(=O)N[C@@H](CC(C)C)C(=O)N[C@@H](CCCCN)C(=O)N[C@@H](CCCCN)C(=O)N[C@@H](CC(C)C)C(=O)N[C@@H](CCCN=C(N)N)C(=O)N[C@@H](CC(N)=O)C(=O)N[C@@H](C)C(=O)N[C@@H](CC(C)C)C(=O)N[C@@H](CCCCN)C(=O)N[C@@H](CCCCN)C(=O)N[C@@H](CCCCN)C(=O)N[C@@H](CC(C)C)C(=O)N[C@@H](CCCCN)C(=O)NCC(=O)N[C@@H](CCC(=O)O)C(=O)O [SMWSGMWRRKLKKLRNALKKKLKGE]
- MIC [24]: 1 µM (≈ 3.07 µg/mL)
- MIC [25]: 4.1 µM (≈ 12.6 µg/mL)
- MIC [26]: 1.3 µM (≈ 4 µg/mL)
- MIC [27]: 1.3 µM (≈ 4 µg/mL)
- MIC [28]: 1 µM (≈ 3.07 µg/mL)
- MIC [29]: 1.3 µM (≈ 4 µg/mL)
- MIC [30]: 0.5 µM (≈ 1.54 µg/mL)
- MIC [31]: ≥ 33 µM
- MIC [32]: 0.7 µM (≈ 2.15 µg/mL)
- MIC [33]: 1.3 µM (≈ 4 µg/mL)

SMILES: CSCC[C@H](NC(=O)[C@H](CO)NC(=O)[C@H](CCCCN)NC(=O)[C@H](Cc1c[nH]c2ccccc12)NC(=O)[C@@H](N)CO)C(=O)N[C@@H](C)C(=O)N[C@@H](CCCCN)C(=O)N[C@@H](CCCCN)C(=O)N[C@@H](CC(C)C)C(=O)N[C@@H](CCCCN)C(=O)N[C@@H](CCC(=O)O)C(=O)N[C@@H](Cc1ccc(O)cc1)C(=O)N[C@@H](CCSC)C(=O)N[C@@H](CCC(=O)O)C(=O)N[C@@H](CCCCN)C(=O)N[C@@H](CC(C)C)C(=O)N[C@@H](CCCCN)C(=O)N[C@@H](CCC(N)=O)C(=O)N[C@@H](CCCNC(=N)N)C(=O)N[C@@H](C)C(=O)O [SWKSMAKKLKEYMEKLKQRA]
- MIC [24]: 1.2 µM (≈ 2.98 µg/mL)
- MIC [25]: > 40 µM
- MIC [34]: ≥ 100 µM
- MIC [26]: 3.22 µM (≈ 8 µg/mL)
- MIC [27]: 3.22 µM (≈ 8 µg/mL)
- MIC [2]: 40.3 µM (≈ 100 µg/mL)
- MIC [28]: 2.5 µM (≈ 6.21 µg/mL)
- MIC [29]: 6.44 µM (≈ 16 µg/mL)
- MIC [23]: ≥ 100 µM
- MIC [30]: 0.3 µM (≈ 0.745 µg/mL)
- MIC [31]: 20 µM (≈ 49.7 µg/mL)
- MIC [7]: 33.8 µM (≈ 84 µg/mL)
- MIC [32]: 6 µM (≈ 14.9 µg/mL)
- MIC [33]: 3.22 µM (≈ 8 µg/mL)
